PubChem BioAssay AID248 (DTP/NCI, 2004)
Where “and” joins values, the source holds several entries; their conditions need not be identical. Equal values may be shown once. Inconclusive results and toxic doses are left out. No stated cut-off is given here; in the data, active means T/C of 150% or more; inactive means T/C below 125%. Numbered stars: 1 amine (or outer) side, 2 acyl side, 3 side chain; on linkers, the order of the positions; unused ones are H or OH. Bridge positions count the residues as written; N and C are the ends. Square brackets hold non-standard residues; d marks the D form. Peptide text beside a SMILES is read from it. I, II: the chains in the order shown. Actinocin(1to9) = Cc1c2oc3c(C)ccc(C(=O)[*:2])c3nc-2c(C(=O)[*:1])c(N)c1=O; X2 = CC(=O)OC1CC(C)N([*:1])C1C(=O)[*:2]; X1 = CC1CC(=O)C(C(=O)[*:2])N1[*:1]; NMeV = CN[CH](C(=O)O)C(C)C; NMeA = CN[CH](C)C(=O)O; Sar = CNCC(=O)O

System: L1210 leukemia ip in BDF1 mice, survival T/C
Assay: NCI In Vivo Anticancer Drug Screen. Data for tumor model L1210 Leukemia (intraperitoneal) in B6D2F1 (BDF1) mice
Details: endpoint: mean survival time, higher = longer survival
Outline: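 Ratio derived from survival: compound-dosed mice over vehicle-dosed mice, all bearing a transplantable tumor.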

[1] = dose: 75.0 mg/kg/injection, schedule: Q01DX001 (ip), vehicle: saline
[2] = dose: 150.0 mg/kg/injection, schedule: Q01DX001 (ip), vehicle: saline
[3] = dose: 200.0 mg/kg/injection, schedule: Q04DX002 (ip), vehicle: Klucel (hydroxypropylcellulose) (HPC)
[4] = dose: 400.0 mg/kg/injection, schedule: Q04DX002 (ip), vehicle: Klucel (hydroxypropylcellulose) (HPC)

Measured: T/C

NC(=O)N1CCCCN1C(N)=O
inactive: dose: 100.0 mg/kg/injection, schedule: Q04DX002 (ip), vehicle: saline 99 % of control | dose: 200.0 mg/kg/injection, schedule: Q04DX002 (ip), vehicle: saline 111 % of control | dose: 400.0 mg/kg/injection, schedule: Q04DX002 (ip), vehicle: saline 92 % of control

CCN(CC)CCCC(C)Nc1cc(N)nc2nc(-c3ccc(Cl)cc3)cnc12 (stereo not given)
inactive: [1] 94 % of control | [2] 101 % of control

CCC1CCCCN1 (stereo not given)
inactive: dose: 10.0 mg/kg/injection, schedule: Q01DX001 (ip), vehicle: saline 105 % of control | dose: 10.0 mg/kg/injection, schedule: Q01DX009 (ip), vehicle: saline 108 % of control and 111 % of control | dose: 10.0 mg/kg/injection, schedule: Q04DX002 (ip), vehicle: saline 95 % of control and 106 % of control | dose: 10.0 mg/kg/injection, schedule: Q04DX003 (ip), vehicle: saline 103 % of control | dose: 20.0 mg/kg/injection, schedule: Q01DX001 (ip), vehicle: saline 120 % of control | dose: 20.0 mg/kg/injection, schedule: Q01DX009 (ip), vehicle: saline 104 % of control | dose: 20.0 mg/kg/injection, schedule: Q04DX002 (ip), vehicle: saline 103 % of control | dose: 20.0 mg/kg/injection, schedule: Q04DX003 (ip), vehicle: saline 101 % of control | dose: 40.0 mg/kg/injection, schedule: Q01DX001 (ip), vehicle: saline 103 % of control | dose: 40.0 mg/kg/injection, schedule: Q01DX009 (ip), vehicle: saline 104 % of control | dose: 40.0 mg/kg/injection, schedule: Q04DX002 (ip), vehicle: saline 94 % of control and 98 % of control | dose: 40.0 mg/kg/injection, schedule: Q04DX003 (ip), vehicle: saline 97 % of control

O=S1CCCCO1 (stereo not given)
inactive: dose: 37.5 mg/kg/injection, schedule: Q01DX009 (ip), vehicle: saline 96 % of control | [1] 101 % of control | dose: 75.0 mg/kg/injection, schedule: Q01DX009 (ip), vehicle: saline 91 % of control | [2] 101 % of control | dose: 150.0 mg/kg/injection, schedule: Q01DX009 (ip), vehicle: saline 96 % of control | dose: 300.0 mg/kg/injection, schedule: Q01DX001 (ip), vehicle: saline 104 % of control

O=C(Nc1cccnc1)c1cccc([N+](=O)[O-])c1
inactive: [3] 108 % of control | [4] 97 % of control

COc1cc2cc(C)c(I)cc2cc1OC
inactive: dose: 75.0 mg/kg/injection, schedule: Q04DX003 (ip), vehicle: Klucel (hydroxypropylcellulose) (HPC) 97 % of control | dose: 150.0 mg/kg/injection, schedule: Q04DX003 (ip), vehicle: Klucel (hydroxypropylcellulose) (HPC) 97 % of control | dose: 300.0 mg/kg/injection, schedule: Q04DX003 (ip), vehicle: Klucel (hydroxypropylcellulose) (HPC) 103 % of control

CC(=O)c1c(O)cc(C)[nH]c1=O
inactive: dose: 100.0 mg/kg/injection, schedule: Q01DX001 (ip), vehicle: saline 86 % of control | dose: 200.0 mg/kg/injection, schedule: Q01DX001 (ip), vehicle: saline 89 % of control | dose: 400.0 mg/kg/injection, schedule: Q01DX001 (ip), vehicle: saline 86 % of control

O=[N+]([O-])c1ccc2cnn(C[N+]34CN5CN(CN(C5)C3)C4)c2c1
inactive: dose: 100.0 mg/kg/injection, schedule: Q01DX001 (ip), vehicle: other 103 % of control | dose: 200.0 mg/kg/injection, schedule: Q01DX001 (ip), vehicle: other 100 % of control | dose: 400.0 mg/kg/injection, schedule: Q01DX001 (ip), vehicle: other 111 % of control

CC(=O)OC1CC(C)N2C(=O)C(C(C)C)NC(=O)C(NC(=O)c3ccc(C)c4oc5c(C)c(=O)c(N)c(C(=O)NC6C(=O)NC(C(C)C)C(=O)N7C(C)CC(=O)C7C(=O)N(C)CC(=O)N(C)C(C)C(=O)OC6C)c-5nc34)C(C)OC(=O)C(C(C)C)N(C)C(=O)CN(C)C(=O)C12 (stereo not given) (I: TV[X1][Sar][NMeA] / II: TV[X2][Sar][NMeV]; ester I:1-I:C, II:1-II:C; linker I:N-II:N via Actinocin(1to9); configuration not given here)
inactive: dose: 0.1 mg/kg/injection, schedule: Q01DX009 (ip), vehicle: saline + alcohol 101 % of control | dose: 0.2 mg/kg/injection, schedule: Q01DX009 (ip), vehicle: saline + alcohol 105 % of control | dose: 0.3 mg/kg/injection, schedule: Q04DX003 (ip), vehicle: saline + alcohol 97 % of control | dose: 0.4 mg/kg/injection, schedule: Q01DX009 (ip), vehicle: saline + alcohol 110 % of control | dose: 0.6 mg/kg/injection, schedule: Q04DX003 (ip), vehicle: saline + alcohol 108 % of control | dose: 0.8 mg/kg/injection, schedule: Q01DX001 (ip), vehicle: saline + alcohol 97 % of control | dose: 0.8 mg/kg/injection, schedule: Q01DX009 (ip), vehicle: saline + alcohol 116 % of control | dose: 1.2 mg/kg/injection, schedule: Q04DX003 (ip), vehicle: saline + alcohol 110 % of control | dose: 1.6 mg/kg/injection, schedule: Q01DX001 (ip), vehicle: saline + alcohol 102 % of control | dose: 1.6 mg/kg/injection, schedule: Q01DX009 (ip), vehicle: saline + alcohol 122 % of control | dose: 2.4 mg/kg/injection, schedule: Q04DX003 (ip), vehicle: saline + alcohol 112 % of control | dose: 3.2 mg/kg/injection, schedule: Q01DX001 (ip), vehicle: saline + alcohol 106 % of control | dose: 4.8 mg/kg/injection, schedule: Q04DX003 (ip), vehicle: saline + alcohol 121 % of control | dose: 6.4 mg/kg/injection, schedule: Q01DX001 (ip), vehicle: saline + alcohol 122 % of control

COC(=O)C1C2C=CC(C3C=CC32)C1C(=O)OC (stereo not given)
inactive: dose: 100.0 mg/kg/injection, schedule: Q04DX002 (ip), vehicle: Klucel (hydroxypropylcellulose) (HPC) 103 % of control | [3] 97 % of control | [4] 103 % of control

COc1ccc(C23CCCC(=O)C2C2C(=O)CCCC23c2ccc(OC)cc2)cc1 (stereo not given)
inactive: dose: 100.0 mg/kg/injection, schedule: Q01DX001 (ip), vehicle: Klucel (hydroxypropylcellulose) (HPC) 100 % of control | dose: 100.0 mg/kg/injection, schedule: Q04DX003 (ip), vehicle: Klucel (hydroxypropylcellulose) (HPC) 100 % of control | dose: 200.0 mg/kg/injection, schedule: Q01DX001 (ip), vehicle: Klucel (hydroxypropylcellulose) (HPC) 97 % of control | dose: 200.0 mg/kg/injection, schedule: Q04DX003 (ip), vehicle: Klucel (hydroxypropylcellulose) (HPC) 101 % of control | dose: 400.0 mg/kg/injection, schedule: Q01DX001 (ip), vehicle: Klucel (hydroxypropylcellulose) (HPC) 100 % of control | dose: 400.0 mg/kg/injection, schedule: Q04DX003 (ip), vehicle: Klucel (hydroxypropylcellulose) (HPC) 95 % of control

CN1CCN(CCC=C2c3ccccc3Sc3ccc(S(=O)(=O)N(C)C)cc32)CC1
inactive: dose: 0.39 mg/kg/injection, schedule: Q01DX009 (ip), vehicle: saline 114 % of control | dose: 0.78 mg/kg/injection, schedule: Q01DX009 (ip), vehicle: saline 101 % of control | dose: 1.56 mg/kg/injection, schedule: Q01DX009 (ip), vehicle: saline 121 % of control | dose: 3.12 mg/kg/injection, schedule: Q01DX009 (ip), vehicle: saline 114 % of control | dose: 6.25 mg/kg/injection, schedule: Q01DX009 (ip), vehicle: saline 114 % of control | dose: 12.5 mg/kg/injection, schedule: Q01DX009 (ip), vehicle: saline 102 % of control | dose: 25.0 mg/kg/injection, schedule: Q04DX003 (ip), vehicle: saline 95 % of control | dose: 50.0 mg/kg/injection, schedule: Q04DX003 (ip), vehicle: saline 95 % of control | dose: 100.0 mg/kg/injection, schedule: Q01DX001 (ip), vehicle: carboxymethylcellulose (CMC) 121 % of control | dose: 100.0 mg/kg/injection, schedule: Q04DX003 (ip), vehicle: saline 122 % of control | dose: 200.0 mg/kg/injection, schedule: Q01DX001 (ip), vehicle: carboxymethylcellulose (CMC) 103 % of control | dose: 200.0 mg/kg/injection, schedule: Q04DX003 (ip), vehicle: saline 104 % of control | dose: 400.0 mg/kg/injection, schedule: Q01DX001 (ip), vehicle: carboxymethylcellulose (CMC) 118 % of control
